Experimental data as given in the NIST ThermoML archive (doi:10.1016/j.jct.2018.02.022).
± gives the expanded uncertainty stated by the source.

Experiment: xn = mol fraction of the nth substance listed
Conditions: 308.15 K, 92.3 kPa, Liquid; for viscosity: Concentric cylinders viscometry; for speed of sound: Frequency=3 MHz, Single path-length method; for mass density: Vibrating tube method

OCC(O)CO [glycerol] + O
Conditions	mass density [kg/m3]	speed of sound [m/s]	viscosity [mPa·s]
x1 = 0.011	1006.3 ± 3.2	1538.8 ± 1.8	–
x1 = 0.021	1016.83 ± 3.2	1556.4 ± 1.8	–
x1 = 0.0302	1026.01 ± 3.2	1571.8 ± 1.8	–
x1 = 0.0398	1035.13 ± 3.2	1587.3 ± 1.8	–
x1 = 0.0546	1048.23 ± 3.3	1609.6 ± 1.8	–
x1 = 0.0651	1056.7 ± 3.3	1624.6 ± 1.8	–
x1 = 0.0721	1062.31 ± 3.3	1634.3 ± 1.8	–
x1 = 0.0793	1067.51 ± 3.3	1643.6 ± 1.8	–
x1 = 0.0898	1075.13 ± 3.3	1656.9 ± 1.8	–
x1 = 0.0998	1081.93 ± 3.3	1668.9 ± 1.8	2.102 ± 0.29
x1 = 0.1198	1094.42 ± 3.3	1690.8 ± 1.8	–
x1 = 0.1549	1113.89 ± 3.3	1724.3 ± 1.8	3.385 ± 0.47
x1 = 0.2024	1135.43 ± 3.3	1760.1 ± 1.8	–
x1 = 0.2534	1154.17 ± 3.3	1789.3 ± 1.8	7.44 ± 1
x1 = 0.2959	1167.15 ± 3.3	1808.1 ± 1.8	10.25 ± 1.4
x1 = 0.3504	1181.02 ± 3.3	1826.7 ± 1.8	14.92 ± 2.1
x1 = 0.4006	1191.72 ± 3.3	1839.7 ± 1.8	20.87 ± 2.9
x1 = 0.4477	1200.23 ± 3.3	1849 ± 1.8	27.91 ± 3.9
x1 = 0.4983	1208.14 ± 3.3	1857.6 ± 1.8	37.43 ± 5.2
x1 = 0.5471	1214.97 ± 3.3	1863.4 ± 1.8	49.12 ± 6.9
x1 = 0.6046	1221.64 ± 3.3	1869 ± 1.8	65.97 ± 9.2
x1 = 0.6469	1226.11 ± 3.3	1872.2 ± 1.8	85.3 ± 12
x1 = 0.7006	1231.15 ± 3.3	1875.7 ± 1.8	111.01 ± 16
x1 = 0.7465	1235.11 ± 3.4	1878.4 ± 1.8	140.28 ± 20
x1 = 0.7942	1238.83 ± 3.4	1880.9 ± 1.8	172.49 ± 24
x1 = 0.8497	1242.6 ± 3.4	1883.6 ± 1.8	218.85 ± 31
x1 = 0.8993	1245.64 ± 3.4	1884.6 ± 1.8	270.27 ± 38
x1 = 0.9196	1246.89 ± 3.4	1885.5 ± 1.8	–
x1 = 0.9322	1247.62 ± 3.4	1885.8 ± 1.8	–
x1 = 0.9462	1248.4 ± 3.4	1886.3 ± 1.9	326.69 ± 46
x1 = 0.9562	1248.93 ± 3.4	1886.6 ± 1.9	–
x1 = 0.9855	1250.59 ± 3.4	1887.5 ± 1.9	–
x1 = 1	1251.38 ± 3	1888.1 ± 1.9	401.76 ± 57
